Values of other authors in patent US10925856B2, “Methods and compositions involving bucindolol for the treatment of atrial fibrillation” (priority 2018, dated 2021).
Like-named read-outs stand apart in the source and are kept apart here.

Assays:
Settings in all cases: cited from earlier work
[1] = molecular target: human β1-adrenergic receptor (Homo sapiens, UniProt P08588)
[2] = test system: advanced HFrEF patients (ADRB1 Arg389Gly / ADRA2C Ins322-325Del genotypes)
[3] = test system: patients with HF and/or AF
[4] = BEST, {ADRA2C Del carrier and ADRB1 Arg389Arg}
[5] = BEST, {ADRA2C Del carriers and ADRB1 389Gly carriers}

Sequence of human β1-adrenergic receptor (P08588 whole entry): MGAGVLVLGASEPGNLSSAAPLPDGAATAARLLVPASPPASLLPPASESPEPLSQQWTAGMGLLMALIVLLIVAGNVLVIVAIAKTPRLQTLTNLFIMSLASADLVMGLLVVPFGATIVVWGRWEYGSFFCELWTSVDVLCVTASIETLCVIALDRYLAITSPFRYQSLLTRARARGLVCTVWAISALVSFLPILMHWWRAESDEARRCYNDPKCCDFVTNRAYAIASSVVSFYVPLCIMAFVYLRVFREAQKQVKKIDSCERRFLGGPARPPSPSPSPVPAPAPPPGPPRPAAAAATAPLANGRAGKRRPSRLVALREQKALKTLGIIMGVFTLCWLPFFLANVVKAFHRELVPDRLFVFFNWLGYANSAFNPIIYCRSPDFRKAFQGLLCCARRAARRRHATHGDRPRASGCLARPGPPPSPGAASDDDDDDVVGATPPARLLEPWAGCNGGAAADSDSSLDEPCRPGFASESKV

SMILES	KD (KA in the occupancy formula), dissociation constant for human β1-ARs [1]	Reduction in NE ([2]; BEST trial at 12 weeks)	Decrease in NE (sympatholysis) ([2]; BEST, ADRA2C Del genotypes)	Decrease in NE (sympatholysis) ([2]; BEST, ADRA2C Ins homozygotes)	Effect sizes, time to ACM or HF hospitalization and CV mortality or CV hospitalization ([2]; BEST, ADRB1 Arg389Arg subset in permanent AF)	Reduction in the development (risk) of AF vs. placebo ([2]; BEST, ADRB1 Arg389Arg, sinus rhythm at baseline)	Reduction in NE ([2]; BEST, {ADRA2C Del carrier and ADRB1 Arg389Arg} combination genotype)	Hazard ratio, ACM, bucindolol vs. placebo [2, 4]	Hazard ratio, CVM, bucindolol vs. placebo [2, 4]	Hazard ratio, heart failure hospitalization burden, bucindolol vs. placebo [2, 4]	Hazard ratio, ACM, bucindolol vs. placebo [2, 5]	Hazard ratio, CVM, bucindolol vs. placebo [2, 5]	Hazard ratio, heart failure hospitalization burden, bucindolol vs. placebo [2, 5]	Lowering of AF risk ([3]; HFrEF (MERIT-HF))	Incidence of AF recurrence ([3]; persistent AF, ECV to SR, end of 6-month follow-up)
CC(C)(Cc1c[nH]c2ccccc12)NCC(O)COc1ccccc1C#N (stereo not drawn) [bucindolol, 2-(3-(1-(1H-indol-3-yl)-2-methylpropan-2-ylamino)-2-hydroxypropoxy)benzonitrile]	3.6 nM	75 pg/mL	153 pg/mL	50 pg/mL	exceeding 70%	74%	120 pg/mL	0.50	0.40	0.60	1.04	1.11	1.19		
COCCc1ccc(OCC(O)CNC(C)C)cc1 (stereo not drawn) [metoprolol, metoprolol succinate, reference compound]														48%	52%
